Literature values, collected in patent publication US20110123612A1, “PHARMACEUTICAL PREPARATION CONTAINING NON-DIHYDROPYRIDINE CALCIUM CHANNEL BLOCKER AND ANGIOTENSIN-2 RECEPTOR BLOCKER” (priority 2008, published 2011).

How the values were obtained:
[1] = active form of losartan
[2] = active losartan molecule released into blood

time to peak blood concentration [2]: ≤ 1 h
Structure (SMILES): CCCCc1nc(Cl)c(CO)n1Cc1ccc(-c2ccccc2-c2nn[nH]n2)cc1 [losartan]
anti-hypertensive effects of the active form [1]: ≥ 10 fold
